Reference: PubChem BioAssay AID280 (DTP/NCI, 2004)
Several values for one entry are separate records, joined by “and”; a condition that tells them apart may be missing. Equal values may be shown once. Inconclusive results and toxic doses are left out.

System: nude mice, LOX melanoma ip, survival T/C
Test: NCI In Vivo Anticancer Drug Screen. Data for tumor model Human Amelanotic Melanoma (LOX) (intraperitoneal) in NU/NU BALB/C (nude) mice
Settings: endpoint: median survival time, schedule: Q04DX003 (ip), higher = longer survival
Experimental: The antitumor activity of compounds was measured in mice bearing transplantable tumors. Survival or tumor size were measured and the results are expressed as the measurement made in the treated group (T) divided by the measurement made in the vehicle treated control group (C). The tumor model used in this assay is Human Amelanotic Melanoma (LOX) (intraperitoneal) in NU/NU BALB/C (nude) mice

[1] = dose: 37.5 mg/kg/injection, vehicle: saline with Tween-80
[2] = dose: 75.0 mg/kg/injection, vehicle: saline with Tween-80
[3] = dose: 150.0 mg/kg/injection, vehicle: saline with Tween-80
[4] = dose: 300.0 mg/kg/injection, vehicle: Klucel (hydroxypropylcellulose) (HPC)
[5] = dose: 30.0 mg/kg/injection, vehicle: saline
[6] = dose: 60.0 mg/kg/injection, vehicle: saline
[7] = dose: 120.0 mg/kg/injection, vehicle: saline
[8] = dose: 30.0 mg/kg/injection, vehicle: saline with Tween-80
[9] = dose: 60.0 mg/kg/injection, vehicle: saline with Tween-80
[10] = dose: 120.0 mg/kg/injection, vehicle: saline with Tween-80
[11] = dose: 240.0 mg/kg/injection, vehicle: saline with Tween-80

Q: For `COc1ccc(S(=O)(=O)N=N/C=C2\C=CC=CN2O)cc1OC`, which T/C (dose: 9.38 mg/kg/injection, vehicle: saline with Tween-80) is on record?
A: 116 % of control

Q: And the T/C (dose: 18.75 mg/kg/injection, vehicle: saline with Tween-80)?
A: 101 % of control

Q: And the T/C [1]?
A: 94 % of control

Q: And the T/C (dose: 54.0 mg/kg/injection, vehicle: saline with Tween-80)?
A: 124 % of control

Q: And the T/C [2]?
A: 105 % of control

Q: What about the T/C [3] of the same compound?
A: 173 % of control

Q: And the T/C (dose: 250.0 mg/kg/injection, vehicle: saline with Tween-80)?
A: 165 % of control

Q: And the T/C (dose: 416.67 mg/kg/injection, vehicle: saline with Tween-80)?
A: 156 % of control

Q: How did the T/C (dose: 10.0 mg/kg/injection, vehicle: water) turn out when `C/C(=N\NC(=S)N1CCN(c2ccccn2)CC1)c1ccccn1` was run?
A: 89 % of control

Q: What about the T/C (dose: 20.0 mg/kg/injection, vehicle: water) of the same compound?
A: 95 % of control

Q: What about the T/C (dose: 40.0 mg/kg/injection, vehicle: water) of the same compound?
A: 94 % of control

Q: What about the T/C (dose: 80.0 mg/kg/injection, vehicle: water) of the same compound?
A: 97 % of control

Q: With `CCS/C(SC)=C(/c1ccccc1)[P+](c1ccccc1)(c1ccccc1)c1ccccc1` as the compound, how does the T/C (dose: 0.81 mg/kg/injection, vehicle: Klucel (hydroxypropylcellulose) (HPC)) read?
A: 106 % of control

Q: What about the T/C (dose: 1.35 mg/kg/injection, vehicle: Klucel (hydroxypropylcellulose) (HPC)) of the same compound?
A: 106 % of control

Q: What about the T/C (dose: 2.25 mg/kg/injection, vehicle: Klucel (hydroxypropylcellulose) (HPC)) of the same compound?
A: 118 % of control

Q: And the T/C (dose: 3.12 mg/kg/injection, vehicle: Klucel (hydroxypropylcellulose) (HPC))?
A: 95 % of control

Q: What about the T/C (dose: 3.76 mg/kg/injection, vehicle: Klucel (hydroxypropylcellulose) (HPC)) of the same compound?
A: 100 % of control

Q: And the T/C (dose: 6.25 mg/kg/injection, vehicle: Klucel (hydroxypropylcellulose) (HPC))?
A: 94 % of control

Q: `Cc1ccc(C2=CSC3=NCCN23)cc1Cl` was tested. Which T/C (dose: 12.5 mg/kg/injection, vehicle: Klucel (hydroxypropylcellulose) (HPC)) did it give?
A: 97 % of control

Q: And the T/C (dose: 25.0 mg/kg/injection, vehicle: Klucel (hydroxypropylcellulose) (HPC))?
A: 96 % of control

Q: What about the T/C (dose: 50.0 mg/kg/injection, vehicle: Klucel (hydroxypropylcellulose) (HPC)) of the same compound?
A: 101 % of control

Q: Which results are given for `CCOC(=O)/C=C/C(=O)N1CCN(C(=O)/C=C/C(=O)OCC)C(C)C1` (stereo unspecified)?
A: T/C (dose: 75.0 mg/kg/injection, vehicle: Klucel (hydroxypropylcellulose) (HPC)): 117 % of control; T/C (dose: 150.0 mg/kg/injection, vehicle: Klucel (hydroxypropylcellulose) (HPC)): 109 % of control; T/C [4]: 108 % of control; T/C (dose: 600.0 mg/kg/injection, vehicle: Klucel (hydroxypropylcellulose) (HPC)): 116 % of control

Q: With `CCCn1c(SC)nc(COC(=O)NC)c1COC(=O)NC` as the compound, how does the T/C [5] read?
A: 104 % of control

Q: What about the T/C [6] of the same compound?
A: 123 % of control

Q: And the T/C (dose: 106.8 mg/kg/injection, vehicle: water)?
A: 98 % of control

Q: And the T/C [7]?
A: 119 % of control

Q: And the T/C (dose: 160.1 mg/kg/injection, vehicle: water)?
A: 103 % of control

Q: And the T/C (dose: 240.0 mg/kg/injection, vehicle: saline)?
A: 191 % of control

Q: And the T/C (dose: 240.0 mg/kg/injection, vehicle: water)?
A: 122 % of control

Q: And the T/C (dose: 359.8 mg/kg/injection, vehicle: water)?
A: 189 % of control

Q: And the T/C (dose: 480.0 mg/kg/injection, vehicle: saline)?
A: 170 % of control

Q: With `CCCCN1C(=O)N(c2ccc(OCC)cc2)C2N(CCCC)C1C(C)(C)C2(C)C` (stereo unspecified) as the compound, how does the T/C (dose: 15.0 mg/kg/injection, vehicle: saline with Tween-80) read?
A: 101 % of control

Q: And the T/C [8]?
A: 107 % of control

Q: And the T/C [9]?
A: 101 % of control and 102 % of control

Q: And the T/C [10]?
A: 101 % of control

Q: What about the T/C [11] of the same compound?
A: 98 % of control

Q: Which results are given for `N=C(N)c1ccc(N=Nc2c(O)ccc3cc(O)ccc23)cc1`?
A: T/C (dose: 18.75 mg/kg/injection, vehicle: Klucel (hydroxypropylcellulose) (HPC)): 92 % of control; T/C (dose: 37.5 mg/kg/injection, vehicle: Klucel (hydroxypropylcellulose) (HPC)): 102 % of control; T/C [4]: 95 % of control

Q: How did the T/C (dose: 14.4 mg/kg/injection, vehicle: saline with Tween-80) turn out when `CCOC(=O)Nc1cc2c(c(N)n1)N=C(c1ccc3ccccc3c1)CN2` was run?
A: 100 % of control

Q: And the T/C (dose: 24.0 mg/kg/injection, vehicle: saline with Tween-80)?
A: 123 % of control

Q: And the T/C (dose: 40.0 mg/kg/injection, vehicle: saline with Tween-80)?
A: 103 % of control and 112 % of control

Q: And the T/C (dose: 66.66 mg/kg/injection, vehicle: saline with Tween-80)?
A: 109 % of control

Q: And the T/C (dose: 67.0 mg/kg/injection, vehicle: saline with Tween-80)?
A: 111 % of control

Q: What about the T/C (dose: 111.0 mg/kg/injection, vehicle: saline with Tween-80) of the same compound?
A: 112 % of control

Q: And the T/C (dose: 185.0 mg/kg/injection, vehicle: saline with Tween-80)?
A: 122 % of control

Q: With `COc1cc(C(=O)N/N=C/c2cccc([N+](=O)[O-])c2)cc(OC)c1OC` as the compound, how does the T/C [1] read?
A: 98 % of control

Q: And the T/C [2]?
A: 101 % of control and 96 % of control

Q: And the T/C [3]?
A: 104 % of control and 105 % of control

Q: And the T/C (dose: 300.0 mg/kg/injection, vehicle: saline with Tween-80)?
A: 98 % of control

Q: And the T/C (dose: 600.0 mg/kg/injection, vehicle: saline with Tween-80)?
A: 105 % of control and 98 % of control

Q: What about the T/C (dose: 1200.0 mg/kg/injection, vehicle: saline with Tween-80) of the same compound?
A: 114 % of control

Q: Which T/C (dose: 50.0 mg/kg/injection, vehicle: saline) does the source give for `CN1COc2c(n(C)c(=O)[nH]c2=O)C1` here?
A: 96 % of control

Q: And the T/C (dose: 50.0 mg/kg/injection, vehicle: suspension in saline)?
A: 102 % of control

Q: And the T/C (dose: 100.0 mg/kg/injection, vehicle: saline)?
A: 91 % of control

Q: And the T/C (dose: 100.0 mg/kg/injection, vehicle: suspension in saline)?
A: 104 % of control

Q: What about the T/C (dose: 200.0 mg/kg/injection, vehicle: saline) of the same compound?
A: 104 % of control

Q: What about the T/C (dose: 200.0 mg/kg/injection, vehicle: suspension in saline) of the same compound?
A: 122 % of control

Q: And the T/C (dose: 400.0 mg/kg/injection, vehicle: saline)?
A: 110 % of control

Q: And the T/C (dose: 400.0 mg/kg/injection, vehicle: suspension in saline)?
A: 108 % of control

Q: What about the T/C (dose: 800.0 mg/kg/injection, vehicle: saline) of the same compound?
A: 120 % of control

Q: What about the T/C (dose: 800.0 mg/kg/injection, vehicle: suspension in saline) of the same compound?
A: 108 % of control

Q: How did the T/C (dose: 6.25 mg/kg/injection, vehicle: DMSO) turn out when `O=C(Nc1cccc(O)c1)C(Cl)=C(Cl)Cl` was run?
A: 96 % of control

Q: And the T/C (dose: 12.5 mg/kg/injection, vehicle: DMSO)?
A: 91 % of control

Q: What about the T/C (dose: 25.0 mg/kg/injection, vehicle: DMSO) of the same compound?
A: 95 % of control

Q: And the T/C (dose: 50.0 mg/kg/injection, vehicle: DMSO)?
A: 94 % of control

Q: What does the source list for `Cn1c(=S)sc2nc3ccccc3n2c1=S`?
A: T/C [8]: 122 % of control; T/C [9]: 100 % of control; T/C [10]: 104 % of control; T/C [11]: 108 % of control; T/C (dose: 480.0 mg/kg/injection, vehicle: saline with Tween-80): 94 % of control

Q: What does the source list for `O=C(O)Cc1cccc2c(=O)cc(-c3ccccc3)oc12`?
A: T/C (dose: 25.0 mg/kg/injection, vehicle: sodium bicarbonate): 108 % of control; T/C (dose: 50.0 mg/kg/injection, vehicle: sodium bicarbonate): 119 % of control

Q: For `CCOC(=O)N(C)N=NC`, which T/C (dose: 7.5 mg/kg/injection, vehicle: saline) is on record?
A: 108 % of control and 109 % of control

Q: What about the T/C (dose: 15.0 mg/kg/injection, vehicle: saline) of the same compound?
A: 107 % of control and 114 % of control (2×)

Q: What about the T/C [5] of the same compound?
A: 121 % of control

Q: What about the T/C [6] of the same compound?
A: 194 % of control

Q: And the T/C [7]?
A: 172 % of control and 191 % of control and 205 % of control
